Laboratory results taken from US11814367B2, “Inhibitors of glycogen synthase 1 (GYS1) and methods of use thereof” (Maze Therapeutics, Inc., priority 2021, dated 2023).

What was measured:
[1] = target: hGYS2 enzyme (recombinant hGYS2/GN1 protein) (Homo sapiens (Human), UniProt P54840); experiment: GYS2 coupled enzyme assay (PK/LDH); format: biochemical; settings: geometric mean of at least 2 assay runs on separate days, read-out: Avg_IC50
How it was run: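 Read-out: NADH loss at 340 nm, read each minute for 10 min, slope normalized to controls, duplicate % inhibition fit to Hill (0–100). Enzyme: 200 nM hGYS2/GN1; substrate 2 mM UDP-glucose plus 0.2% glycogen and 2 mM G6P; pH 7.5 Tris, 2.5% DMSO.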

[2] = target: hGYS1 enzyme (recombinant hGYS1/GN1 protein) (Homo sapiens (Human), UniProt P13807); experiment: GYS1 coupled enzyme assay (PK/LDH); format: biochemical; settings: hGYS1/GN1 50 nM, UDP-Glucose 0.8 mM, G6P 1 mM; geometric mean of at least 2 runs
hGYS1 enzyme (recombinant hGYS1/GN1 protein), sequence (P13807 whole entry): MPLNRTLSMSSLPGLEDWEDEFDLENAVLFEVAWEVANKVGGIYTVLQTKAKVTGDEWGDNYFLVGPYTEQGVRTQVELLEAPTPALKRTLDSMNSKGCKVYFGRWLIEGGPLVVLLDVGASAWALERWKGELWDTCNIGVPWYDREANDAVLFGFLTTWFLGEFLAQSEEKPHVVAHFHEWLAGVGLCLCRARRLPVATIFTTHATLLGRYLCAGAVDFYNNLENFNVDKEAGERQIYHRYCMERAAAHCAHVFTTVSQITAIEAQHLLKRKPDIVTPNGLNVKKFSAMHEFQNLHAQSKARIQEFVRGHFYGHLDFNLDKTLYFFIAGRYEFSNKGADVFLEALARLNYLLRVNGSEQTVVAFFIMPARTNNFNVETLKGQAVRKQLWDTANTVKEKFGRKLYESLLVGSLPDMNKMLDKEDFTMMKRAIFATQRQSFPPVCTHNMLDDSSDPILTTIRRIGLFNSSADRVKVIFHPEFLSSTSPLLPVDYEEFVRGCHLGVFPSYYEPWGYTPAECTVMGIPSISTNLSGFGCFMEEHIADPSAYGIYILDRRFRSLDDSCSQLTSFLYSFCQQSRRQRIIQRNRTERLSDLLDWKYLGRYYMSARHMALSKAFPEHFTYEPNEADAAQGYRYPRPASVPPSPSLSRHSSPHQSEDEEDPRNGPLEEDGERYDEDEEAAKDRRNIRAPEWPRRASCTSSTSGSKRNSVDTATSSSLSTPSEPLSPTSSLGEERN
hGYS1 enzyme (recombinant hGYS1/GN1 protein), sequence (P46976 whole entry partner): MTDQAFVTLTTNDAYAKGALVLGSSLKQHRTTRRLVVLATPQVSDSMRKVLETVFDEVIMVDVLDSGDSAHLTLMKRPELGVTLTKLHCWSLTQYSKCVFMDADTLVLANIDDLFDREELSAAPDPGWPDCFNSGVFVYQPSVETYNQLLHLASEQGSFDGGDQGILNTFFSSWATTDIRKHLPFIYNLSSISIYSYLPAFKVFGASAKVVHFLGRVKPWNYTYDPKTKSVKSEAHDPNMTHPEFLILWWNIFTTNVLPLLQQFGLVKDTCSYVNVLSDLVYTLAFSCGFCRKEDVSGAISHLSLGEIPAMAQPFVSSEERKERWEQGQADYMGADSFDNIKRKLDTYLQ

hGYS2 enzyme (recombinant hGYS2/GN1 protein), sequence (P54840 whole entry): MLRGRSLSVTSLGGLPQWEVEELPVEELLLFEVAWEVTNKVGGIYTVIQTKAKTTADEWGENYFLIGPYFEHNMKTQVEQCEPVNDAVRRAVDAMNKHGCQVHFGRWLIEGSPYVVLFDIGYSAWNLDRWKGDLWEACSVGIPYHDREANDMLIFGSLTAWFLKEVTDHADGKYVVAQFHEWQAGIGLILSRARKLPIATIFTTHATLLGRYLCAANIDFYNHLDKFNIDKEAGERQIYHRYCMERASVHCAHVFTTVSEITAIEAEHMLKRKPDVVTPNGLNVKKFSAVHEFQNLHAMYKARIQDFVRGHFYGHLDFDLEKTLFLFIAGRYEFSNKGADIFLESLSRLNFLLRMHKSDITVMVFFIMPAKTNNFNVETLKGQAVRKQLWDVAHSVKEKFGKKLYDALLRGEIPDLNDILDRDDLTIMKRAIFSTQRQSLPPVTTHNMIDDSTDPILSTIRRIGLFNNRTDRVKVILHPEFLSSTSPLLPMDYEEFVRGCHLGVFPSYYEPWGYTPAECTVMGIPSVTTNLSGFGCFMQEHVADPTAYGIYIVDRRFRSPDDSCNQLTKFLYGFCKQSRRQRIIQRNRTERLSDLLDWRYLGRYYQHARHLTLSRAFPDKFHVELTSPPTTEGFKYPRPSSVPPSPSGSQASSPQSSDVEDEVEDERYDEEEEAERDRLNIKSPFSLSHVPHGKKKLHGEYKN
hGYS2 enzyme (recombinant hGYS2/GN1 protein), sequence (P46976 whole entry partner): as the sequence (P46976 whole entry partner) above

Structure (SMILES)	IC50 [1]	IC50 [2]
Cc1nc(CC(=O)N2C[C@H](F)C[C@H]2C(=O)N[C@@H](c2ccccc2)c2ccc(C(C)C)cc2)cs1 [Compound 52, (2S,4R)-4-fluoro-1-[2-(2-methyl-1,3-thiazol-4-yl)acetyl]-N-[(S)-phenyl[4-(propan-2-yl)phenyl]methyl]pyrrolidine-2-carboxamide]	> 100 µM	0.037 µM
Cc1ccn(CC(=O)N2C[C@H](F)C[C@H]2C(=O)N[C@@H](c2ccccc2)c2ccc(C(C)C)cc2)n1 [Compound 55, (2S,4R)-4-fluoro-1-[2-(3-methyl-1H-pyrazol-1-yl)acetyl]-N-[(S)-phenyl[4-(propan-2-yl)phenyl]methyl]pyrrolidine-2-carboxamide]	> 100 µM	0.043 µM
Cc1cnn(CC(=O)N2C[C@H](F)C[C@H]2C(=O)N[C@@H](c2ccccc2)c2ccc(C(C)C)cc2)c1 [Compound 56, (2S,4R)-4-fluoro-1-[2-(4-methyl-1H-pyrazol-1-yl)acetyl]-N-[(S)-phenyl[4-(propan-2-yl)phenyl]methyl]pyrrolidine-2-carboxamide]	> 100 µM	0.041 µM
CC(C)c1ccc([C@@H](NC(=O)[C@@H]2C[C@@H](F)CN2C(=O)CCc2cncnc2)c2ccccc2)cc1 [Compound 60, (2S,4R)-4-fluoro-N-[(S)-phenyl[4-(propan-2-yl)phenyl]methyl]-1-[3-(pyrimidin-5-yl)propanoyl]pyrrolidine-2-carboxamide]	> 100 µM	0.188 µM
Cc1nnc(CCC(=O)N2C[C@H](F)C[C@H]2C(=O)N[C@@H](c2ccccc2)c2ccc(C(C)C)cc2)s1 [Compound 62, (2S,4R)-4-fluoro-1-[3-(5-methyl-1,3,4-thiadiazol-2-yl)propanoyl]-N-[(S)-phenyl[4-(propan-2-yl)phenyl]methyl]pyrrolidine-2-carboxamide]	> 100 µM	0.064 µM
CC(C)c1ccc([C@@H](NC(=O)[C@@H]2C[C@@H](F)CN2C(=O)C(C)c2ccccn2)c2ccccc2)cc1 (stereo partly drawn) [Compound 64, (2S,4R)-4-fluoro-N-[(S)-phenyl[4-(propan-2-yl)phenyl]methyl]-1-[2-(pyridin-2-yl)propanoyl]pyrrolidine-2-carboxamide]	> 100 µM	0.081 µM

The next lines start with the values.

IC50 [1]	IC50 [2]	Structure (SMILES)
> 100 µM	0.231 µM	CC(C)c1ccc([C@@H](NC(=O)[C@@H]2C[C@@H](F)CN2C(=O)[C@@H]2CCC(=O)N2C)c2ccccc2)cc1 [Compound 57, (2S,4R)-4-fluoro-1-[(2S)-1-methyl-5-oxopyrrolidine-2-carbonyl]-N-[(S)-phenyl[4-(propan-2-yl)phenyl]methyl]pyrrolidine-2-carboxamide]
> 100 µM	0.145 µM	CC(C)c1ccc([C@@H](NC(=O)[C@@H]2C[C@@H](F)CN2C(=O)C2CCC(=O)NC2)c2ccccc2)cc1 (stereo partly drawn) [Compound 58, (2S,4R)-4-fluoro-1-(6-oxopiperidine-3-carbonyl)-N-[(S)-phenyl[4-(propan-2-yl)phenyl]methyl]pyrrolidine-2-carboxamide]
> 100 µM	0.085 µM	CC(C)c1ccc([C@@H](NC(=O)[C@@H]2C[C@@H](F)CN2C(=O)CCc2cnccn2)c2ccccc2)cc1 [Compound 59, (2S,4R)-4-fluoro-N-[(S)-phenyl[4-(propan-2-yl)phenyl]methyl]-1-[3-(pyrazin-2-yl)propanoyl]pyrrolidine-2-carboxamide]
> 100 µM	0.243 µM	COc1nn(C)cc1C(=O)N1C[C@H](F)C[C@H]1C(=O)N[C@@H](c1ccccc1)c1ccc(C(C)C)cc1 [Compound 61, (2S,4R)-4-fluoro-1-(3-methoxy-1-methyl-1H-pyrazole-4-carbonyl)-N-[(S)-phenyl[4-(propan-2-yl)phenyl]methyl]pyrrolidine-2-carboxamide]
> 100 µM	0.015 µM	CC(C)c1ccc([C@@H](NC(=O)[C@@H]2C[C@@H](F)CN2C(=O)Cc2cc(F)ccc2Cl)c2ccccc2)cc1 [Compound 63, (2S,4R)-1-[2-(2-chloro-5-fluorophenyl]acetyl]-4-fluoro-N-[(S)-phenyl[4-(propan-2-yl)phenyl]methyl]pyrrolidine-2-carboxamide]
